In ChEMBL document CHEMBL1201862, “PubChem BioAssay data set” (2004):
Activity calls are given as the source filed them.

What was measured:
[1] = HEK293 cell cytotoxicity, dose response, cytotoxicity control, plate reader, cherry-picked samples (AID 743446); format: functional, cell-based
[2] = non-specific cell cytotoxicity, dose response, cytotoxicity control for PAX8 inhibitor project, plate reader, dry powder samples (AID 743021); format: functional, cell-based
[3] = LGR2 antagonists, dose response, cell-based, HEK293, CRE-luciferase reporter, cherry pick, set 2 (AID 743343); format: functional;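 further: transfected cells were stimulated with diluted bursicon conditioned medium after compound addition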
Paired box protein Pax-8 = Paired box protein Pax-8 (Homo sapiens, UniProt Q06710); test: inhibitors of PAX8-driven TPO luciferase reporter, dose response, RMG-I cells, cherry-pick (AID 687027); format: functional, cell-based;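 further: luciferase reporter driven by Pax8 target thyroperoxidase promoter measured by SteadyGlo luminescence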
[4] = HepG2 cell cytotoxicity, dose response, cytotoxicity control, plate reader, cherry-pick, antagonist series (AID 743416); format: functional, cell-based
[5] = A549 cell cytotoxicity, dose response, cytotoxicity control, plate reader, cherry-pick, antagonist series (AID 743412); format: functional, cell-based
[6] = MC4R antagonists, dose response, counter-screen for LGR2 antagonist project, cell-based, plate reader, cherry pick (AID 743444); format: functional;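 further: transfected HEK 293 cells stimulated with alpha-MSH peptide; potency of inhibitors of the alpha-MSH evoked signal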
[7] = Counterscreen for inhibitors of Trypanosoma brucei methionyl tRNA synthetase (MetRS): Luminescence-based cell-based high throughput dose response assay to identify compounds that are cytotoxic to Jurkat human T lymphocyte cells.; format: functional
[8] = target: T1, Methionyl-tRNA synthetase, putative (Trypanosoma brucei brucei, UniProt Q38C91); format: functional, Trypanosoma brucei brucei strain 927/4 GUTat10.1
[9] = target: T1, Methionyl-tRNA synthetase, putative; format: functional, Trypanosoma brucei brucei strain 927/4 GUTat10.1; remark: listed apart in the source
[10] = HEK293T cytotoxicity, dose response, cytotoxicity control for miR-122 modulator project, cell-based, activator set, cherry-pick (AID 720690); format: functional;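 further: HEK293T human cells scored for general mammalian cytotoxicity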
[11] = HEK293T cytotoxicity, dose response, cytotoxicity control for miR-122 modulator project, cell-based, inhibitor set, cherry-pick, set 2 (AID 720697); format: functional
[12] = miR-122 activators in hepatoma reporter cells, dose response, cell-based, Huh7 psiCHECK-miR122, Renilla luciferase, cherry-picked (AID 651956); format: functional;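 further: huh7 hepatoma cells stably carrying a psiCHECK-2 miR-122 sensor plasmid; renilla luciferase signal reporting endogenous miR-122 activity after 48 h compound exposure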
[13] = T. cruzi growth inhibition in host cells, dose response, cell-based, plate reader, dry powder, set 2 (AID 652275); format: functional
[14] = A375 melanoma cell cytotoxicity, dose response, counter-screen for MITF inhibitor project, CellTiter-Glo luminescence, dry powder, set 2 (AID 624489); format: functional, cell-based; conditions: A-375;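 further: actives are compounds lowering A375 viability meaning general cytotoxicity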
[15] = A375 melanoma cell viability loss, dose response, counter-screen for MITF inhibitor project, CellTiter-Glo luminescence, dry powder, set 4 (AID 624364); format: functional, cell-based; conditions: A-375;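 further: A375 melanoma cells are MITF independent so this is a counter screen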
[16] = target: Sphingosine 1-phosphate receptor 1 (Homo sapiens, UniProt P21453); test: Late-stage counterscreen for antagonists of kappa opioid receptor 1 (OPRK1): fluorescence-based cell-based dose response assay to identify antagonists of Sphingosine 1-Phosphate Receptor 1 (S1P1).; format: functional
[17] = target: Delta-type opioid receptor (Homo sapiens, UniProt P41143); test: Late-stage results from the probe development effort to identify antagonists of OPRK1: fluorescence-based cell-based dose response OPRD1 counterscreen, Set 2.; format: functional
[18] = target: Kappa-type opioid receptor (Homo sapiens, UniProt P41145); test: Late-stage fluorescence-based cell-based dose response assay for antagonists of kappa opioid receptor 1 (OPRK1).; format: functional
Mu-type opioid receptor = Mu-type opioid receptor (Homo sapiens, UniProt P35372); test: Late-stage results from the probe development effort to identify antagonists of OPRK1: luminescence-based cell-based dose response OPRM1 counterscreen, Set 2.; format: functional
[19] = target: T2, C-C chemokine receptor type 6 (Homo sapiens, UniProt P51684); test: SAR analysis of small molecule antagonists of the CXCR6 receptor using a CCR6 receptor luminescent beta-arrestin counterscreen.; format: functional
T2 sequence (P51684 whole entry): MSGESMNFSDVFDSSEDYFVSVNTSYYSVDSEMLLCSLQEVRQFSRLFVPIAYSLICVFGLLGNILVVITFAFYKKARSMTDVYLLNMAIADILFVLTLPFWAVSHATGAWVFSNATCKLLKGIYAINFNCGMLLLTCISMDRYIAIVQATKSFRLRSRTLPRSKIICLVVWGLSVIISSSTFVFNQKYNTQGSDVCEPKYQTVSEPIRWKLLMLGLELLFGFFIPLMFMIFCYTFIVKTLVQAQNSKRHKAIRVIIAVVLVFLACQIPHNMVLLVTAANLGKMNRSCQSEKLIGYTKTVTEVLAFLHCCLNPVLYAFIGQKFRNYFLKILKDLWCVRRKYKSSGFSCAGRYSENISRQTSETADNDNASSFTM

[20] = target: C-X-C chemokine receptor type 4 (Homo sapiens, UniProt P61073); test: SAR analysis of small molecule antagonists of the CXCR6 receptor using a CXCR4 receptor luminescent beta-arrestin counterscreen.; format: functional
[21] = cytotoxicity in HeLa cells, dose response, cytotoxicity control, cell-based, 24 h, dry powder, set 2 (AID 651774); format: functional
[22] = HeLa cell cytotoxicity, dose response, cytotoxicity control, 24 h, plate reader, powder samples, set 3 (AID 651864); format: functional, cell-based
[23] = inhibitors of non-replicating M. tuberculosis, dose response, luciferase, dry powder (AID 651619); format: functional; conditions: Mycobacterium tuberculosis
[24] = inhibitors of non-replicating M. tuberculosis, dose response, luciferase, dry powder (AID 651620); format: functional; conditions: Mycobacterium tuberculosis
[25] = target: Oxysterols receptor LXR-beta (Homo sapiens, UniProt P55055); format: functional, cell-based;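 further: agonist activity at LXR measured by a cell-based luminescence readout across a dose range, run as a counterscreen for daf-12 agonists; HEK293 cells with Gal4-LXR fusion and GAL4-driven luciferase reporter; potency for activation of Gal4-LXR reporter so compounds are agonists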
Kallikrein-7 = Kallikrein-7 (Homo sapiens, UniProt P49862); test: Fluorescence Intensity-based biochemical primary high throughput dose response assay to identify activators of kallikrein-7 (K7) zymogen.
[26] = EDANS-DABCYL fluorescence interference, concentration series, dose response, artefact control for kallikrein-7 zymogen activator project, biochemical, fluorescence intensity, triplicate (AID 720493)

T1 sequence (Q38C91 whole entry): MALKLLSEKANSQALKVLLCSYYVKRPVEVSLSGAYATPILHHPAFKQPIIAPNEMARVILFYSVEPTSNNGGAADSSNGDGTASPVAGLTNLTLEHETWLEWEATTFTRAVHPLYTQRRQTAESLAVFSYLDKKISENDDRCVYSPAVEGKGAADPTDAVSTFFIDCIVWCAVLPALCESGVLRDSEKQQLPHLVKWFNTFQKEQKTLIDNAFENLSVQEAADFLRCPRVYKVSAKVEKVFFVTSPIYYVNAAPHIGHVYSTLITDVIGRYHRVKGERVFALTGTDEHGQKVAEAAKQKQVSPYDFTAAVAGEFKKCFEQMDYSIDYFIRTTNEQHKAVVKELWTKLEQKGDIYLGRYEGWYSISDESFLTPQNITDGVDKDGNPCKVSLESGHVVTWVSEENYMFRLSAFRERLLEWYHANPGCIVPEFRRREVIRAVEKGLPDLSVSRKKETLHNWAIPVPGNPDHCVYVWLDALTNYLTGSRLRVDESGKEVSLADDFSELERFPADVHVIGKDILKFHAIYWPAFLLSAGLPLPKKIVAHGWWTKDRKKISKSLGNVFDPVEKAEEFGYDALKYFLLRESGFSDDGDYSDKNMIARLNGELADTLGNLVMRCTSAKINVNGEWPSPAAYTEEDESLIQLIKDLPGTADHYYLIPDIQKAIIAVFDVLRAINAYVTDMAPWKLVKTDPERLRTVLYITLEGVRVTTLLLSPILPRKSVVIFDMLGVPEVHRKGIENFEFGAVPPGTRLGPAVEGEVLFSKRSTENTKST
Chain of Paired box protein Pax-8 (Q06710 whole entry): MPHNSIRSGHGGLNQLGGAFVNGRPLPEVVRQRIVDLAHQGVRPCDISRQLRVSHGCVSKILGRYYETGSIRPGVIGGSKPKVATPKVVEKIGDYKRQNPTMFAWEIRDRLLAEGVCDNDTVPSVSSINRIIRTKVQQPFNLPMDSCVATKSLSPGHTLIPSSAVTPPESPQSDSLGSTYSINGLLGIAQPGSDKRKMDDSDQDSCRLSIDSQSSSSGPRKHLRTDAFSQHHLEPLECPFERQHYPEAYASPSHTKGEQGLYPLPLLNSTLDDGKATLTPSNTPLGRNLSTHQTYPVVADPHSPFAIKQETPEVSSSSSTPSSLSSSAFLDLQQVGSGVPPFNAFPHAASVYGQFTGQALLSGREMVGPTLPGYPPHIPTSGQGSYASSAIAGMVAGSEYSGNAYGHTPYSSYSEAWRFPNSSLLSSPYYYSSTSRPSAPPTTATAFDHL
Chain of Mu-type opioid receptor (P35372 whole entry): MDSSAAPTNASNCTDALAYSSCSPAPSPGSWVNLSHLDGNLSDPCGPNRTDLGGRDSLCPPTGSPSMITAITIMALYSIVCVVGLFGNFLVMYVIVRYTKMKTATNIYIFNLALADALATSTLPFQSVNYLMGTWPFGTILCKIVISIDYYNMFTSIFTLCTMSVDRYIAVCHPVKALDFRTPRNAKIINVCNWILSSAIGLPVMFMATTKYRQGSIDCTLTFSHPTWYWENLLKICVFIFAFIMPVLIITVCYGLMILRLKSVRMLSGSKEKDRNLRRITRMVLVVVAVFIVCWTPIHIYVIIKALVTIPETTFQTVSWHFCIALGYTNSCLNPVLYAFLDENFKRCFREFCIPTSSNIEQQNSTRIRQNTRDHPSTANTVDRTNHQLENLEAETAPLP
Chain of Kappa-type opioid receptor (P41145 whole entry): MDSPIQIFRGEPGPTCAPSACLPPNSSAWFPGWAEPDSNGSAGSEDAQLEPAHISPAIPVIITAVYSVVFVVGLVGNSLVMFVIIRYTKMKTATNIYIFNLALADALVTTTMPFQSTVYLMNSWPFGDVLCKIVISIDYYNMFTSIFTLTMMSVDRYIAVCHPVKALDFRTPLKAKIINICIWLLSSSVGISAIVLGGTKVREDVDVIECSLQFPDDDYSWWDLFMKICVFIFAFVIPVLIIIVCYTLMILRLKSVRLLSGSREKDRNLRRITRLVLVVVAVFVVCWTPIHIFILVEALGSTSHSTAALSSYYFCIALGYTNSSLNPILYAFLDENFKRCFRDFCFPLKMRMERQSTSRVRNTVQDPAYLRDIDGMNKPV
Chain of C-X-C chemokine receptor type 4 (P61073 whole entry): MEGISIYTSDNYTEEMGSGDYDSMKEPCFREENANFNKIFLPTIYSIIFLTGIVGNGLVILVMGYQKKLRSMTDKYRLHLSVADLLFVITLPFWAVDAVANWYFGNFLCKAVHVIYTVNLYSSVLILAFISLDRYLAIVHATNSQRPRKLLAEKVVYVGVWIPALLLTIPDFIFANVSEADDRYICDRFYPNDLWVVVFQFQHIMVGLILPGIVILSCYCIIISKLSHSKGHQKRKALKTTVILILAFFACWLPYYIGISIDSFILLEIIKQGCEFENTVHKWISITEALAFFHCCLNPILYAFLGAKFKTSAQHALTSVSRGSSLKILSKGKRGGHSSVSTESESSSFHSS
Chain of Oxysterols receptor LXR-beta (P55055 whole entry, the tested form may be a part): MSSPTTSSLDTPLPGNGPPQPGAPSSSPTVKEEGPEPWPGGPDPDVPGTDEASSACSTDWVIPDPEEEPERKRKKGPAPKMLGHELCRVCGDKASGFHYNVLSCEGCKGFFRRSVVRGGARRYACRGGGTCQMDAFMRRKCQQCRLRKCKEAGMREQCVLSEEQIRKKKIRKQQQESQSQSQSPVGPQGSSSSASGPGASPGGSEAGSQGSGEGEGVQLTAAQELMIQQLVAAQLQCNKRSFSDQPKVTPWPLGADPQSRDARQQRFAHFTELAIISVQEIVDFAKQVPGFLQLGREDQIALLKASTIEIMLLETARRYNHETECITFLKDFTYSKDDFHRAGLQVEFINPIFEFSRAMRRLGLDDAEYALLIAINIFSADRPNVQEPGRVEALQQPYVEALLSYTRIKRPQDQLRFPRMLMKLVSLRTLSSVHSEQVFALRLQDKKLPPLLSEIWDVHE
Chain of Sphingosine 1-phosphate receptor 1 (P21453 whole entry): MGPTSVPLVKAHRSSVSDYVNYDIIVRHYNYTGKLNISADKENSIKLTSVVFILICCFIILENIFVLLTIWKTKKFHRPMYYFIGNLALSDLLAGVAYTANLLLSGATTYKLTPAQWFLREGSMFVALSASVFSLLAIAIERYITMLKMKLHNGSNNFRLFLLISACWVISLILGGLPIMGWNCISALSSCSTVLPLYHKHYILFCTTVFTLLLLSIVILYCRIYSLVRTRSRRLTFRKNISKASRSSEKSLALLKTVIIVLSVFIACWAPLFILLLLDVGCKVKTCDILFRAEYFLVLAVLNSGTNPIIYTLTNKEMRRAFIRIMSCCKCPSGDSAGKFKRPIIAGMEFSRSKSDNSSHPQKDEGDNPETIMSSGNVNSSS
Chain of Kallikrein-7 (P49862 whole entry): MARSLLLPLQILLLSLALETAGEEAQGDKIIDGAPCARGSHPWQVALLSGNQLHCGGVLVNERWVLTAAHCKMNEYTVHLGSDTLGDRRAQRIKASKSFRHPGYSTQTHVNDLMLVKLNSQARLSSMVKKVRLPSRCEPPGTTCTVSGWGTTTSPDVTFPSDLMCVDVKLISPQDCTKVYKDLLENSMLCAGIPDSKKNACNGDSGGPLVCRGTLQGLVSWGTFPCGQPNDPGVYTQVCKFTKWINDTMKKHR
Chain of Delta-type opioid receptor (P41143 whole entry): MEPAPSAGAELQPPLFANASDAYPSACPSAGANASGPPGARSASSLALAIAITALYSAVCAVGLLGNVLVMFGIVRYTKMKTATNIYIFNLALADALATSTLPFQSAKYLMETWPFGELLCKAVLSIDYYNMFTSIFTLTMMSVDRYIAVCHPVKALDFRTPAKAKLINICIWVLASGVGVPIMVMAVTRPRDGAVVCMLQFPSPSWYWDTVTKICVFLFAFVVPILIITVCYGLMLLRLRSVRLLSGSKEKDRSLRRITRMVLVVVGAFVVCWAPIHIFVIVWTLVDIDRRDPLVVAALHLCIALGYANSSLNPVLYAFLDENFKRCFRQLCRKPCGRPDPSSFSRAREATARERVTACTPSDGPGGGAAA

Nc1[nH]cnc2c(C3OC(CO)C(O)C3O)cnc1-2 (centres undefined)
AC50 [1]: 0.832 µM (active) | AC50 [2]: 19.5 µM (active) | AC50 [3]: 0.407 µM (active) | AC50 (Paired box protein Pax-8): < 0.26 µM (active) | AC50 [4]: 0.422 µM (active) | AC50 [5]: < 0.05 µM (active) | AC50 [6]: 0.539 µM (active)

Cn1cc(S(=O)(=O)N2CCOCC2)cc1C(=O)NCc1ccc(Cl)cc1
IC50 [7]: 83.3 µM (inactive) | IC50 [8]: 29.8 µM (inactive) | IC50 [9]: 11.2 µM (inactive)

C[C@H](CO)N1C[C@H](C)[C@H](CN(C)Cc2ccc(C(F)(F)F)cc2)OCCCC[C@H](C)Oc2ccc(NC(=O)CCCN(C)C)cc2C1=O
AC50 [10]: 15.7 µM (active) | AC50 [11]: 17.9 µM (active) | AC50 [12]: 10.3 µM (active)

O=C(CN1CCOCC1)N1CCCCN2[C@@H](CO)[C@H](c3ccc(-c4ccccc4)cc3)[C@@H]2C1
AC50 [13]: 2.39 µM (active)

C=CCNC1=C(NS(=O)(=O)c2ccc(Br)cc2)C(=O)c2ccccc2C1=O
AC50 [14]: > 70 µM (inactive) | AC50 [15]: > 70 µM (inactive)

COc1ccccc1C1CCN(Cc2ccc3c(c2)CCC(C)(C)O3)CC1
IC50 [16]: > 50 µM (inactive) | IC50 [17]: > 50 µM (inactive) | IC50 [18]: 4.66 µM (active) | IC50 (Mu-type opioid receptor): 7.4 µM (active)

COc1ccc(CN2C3CCCC2CC(NC(=O)c2cc(OC)c(OC)c(OC)c2)C3)cc1 (centres undefined)
IC50 [19]: > 79 µM (inactive) | IC50 [20]: 57.5 µM (inactive)

CCn1nnnc1NCc1ccc(C(C)C)cc1
AC50 [21]: > 70 µM (inactive) | AC50 [22]: 144 µM (active)

Fc1ccc(-c2nnc(SCc3cn(Cc4ccccc4)nn3)o2)cc1
IC90 [23]: 1 µM (active) | IC90 [24]: 1 µM (active)

Cc1ccsc1/C=N/NC(=O)c1sccc1C
EC50 [25]: > 67.5 µM (inactive)

COc1ccc(-c2coc3cc(O)c(OC)cc3c2=O)cc1 [CASTANIN]
EC50 (Kallikrein-7): 9 µM (active) | EC50 [26]: > 7.73 µM (active)
